Assay results: patent publication US11603377B2, “MTORC1 modulators and uses thereof” (Aeovian Pharmaceuticals, Inc., priority 2020, dated 2023)

What was measured:
mTORC1 = mTORC1 (Homo sapiens (Human), UniProt P42345+P62942); test: mTORC1 inhibition, AlphaLISA of Phospho-p70 S6 kinase (p70S6K pT389) in PC-3 cells; format: cell-based; conditions: inhibition of p70S6K pT389 levels
FKBP51 = FKBP51 (Homo sapiens (Human), UniProt Q13451); test: SPR assay to determine binding affinity to FKBP51 (direct binding); conditions: immobilized biotinylated avi-FKBP51
Experimental: Example 29: SPR Assay to Determine Binding Affinity to FKBP51
Biotinylated avi-FKBP51 was immobilized on a streptavidin chip (Cytiva Series S SA) using a Biacore 8K or 8 k+ (Cytiva). To achieve an immobilization level of 2000 RU, 3 μg/ml biotinylated avi-FKBP51 were injected for 360 sec at a flow rate of 10 μl/min. Rapalogs were diluted in DMSO to 100× working concentration. Each Rapalog was 100-fold diluted in 50 mM HEPES pH 7.5, 150 mM NaCl, 2 mM MgCl2, 1 mM DTT, 0.05% Tween-20 and a serial dilution prepared (8 concentrations, 3-fold dilutions, 0.5-1000 nM). […] The compound dilutions were then injected at 100 uL/min for 120 seconds contact time and with 3600 seconds dissociation time with increasing concentrations. 50 mM HEPES pH 7.5, 150 mM NaCl, 2 mM MgCl2, 1 mM DTT, 0.05% Tween-20, 1% DMSO was used as running buffer. Multi-cycle kinetics data were fit to a 1:1 binding model to measure the association rate ka (1/Ms), the dissociation rate kd (1/s) and the affinity Kd (M).

FKBP12 = FKBP12 (Homo sapiens (Human), UniProt P62942); test: SPR assay to determine binding affinity to FKBP12 (direct binding); conditions: immobilized biotinylated avi-FKBP12
Experimental: SPR Assay to Determine Binding Affinity to FKBP12.
Biotinylated avi-FKBP12 was immobilized on a streptavidin chip (Cytiva Series S SA) using a Biacore 8K or 8 k+ (Cytiva). To achieve an immobilization level of 1000 RU, 2 μg/ml biotinylated avi-FKBP12 were injected for 100 sec at a flow rate of 10 μl/min. Rapalogs were diluted in DMSO to 100× working concentration. Each Rapalog was 100-fold diluted in 50 mM HEPES pH 7.5, 150 mM NaCl, 2 mM MgCl2, 1 mM DTT, 0.05% Tween-20 and a serial dilution prepared (9 concentrations, 3-fold dilutions, 0.08-500 nM). […] The compound dilutions were then injected at 100 uL/min for 120 seconds contact time in sequence with increasing concentrations. Dissociation was monitored for 3600 seconds. 50 mM HEPES pH 7.5, 150 mM NaCl, 2 mM MgCl2, 1 mM DTT, 0.05% Tween-20, 1% DMSO was used as running buffer. The single-cycle kinetics data were fit to a 1:1 binding model to measure the association rate ka (1/Ms), the dissociation rate kd (1/s) and the affinity Kd (M).

[1] = target: FKBP51 / FRB ternary complex (Homo sapiens (Human), UniProt P42345+Q13451); test: SPR assay to characterize ternary complex formation with FKBP51 (FRB binding to rapalog-saturated FKBP51); conditions: FRB dilutions with 100 nM rapalog on immobilized FKBP51
Experimental: Example 31: SPR Assay to Characterize Ternary Complex Formation with FKBP51
(§1) Biotinylated avi-FKBP51 was immobilized on a streptavidin chip (Cytiva Series S SA) using a Biacore 8K or 8 k+ (Cytiva). To achieve an immobilization level of 200 RU, 0.6 μg/ml biotinylated avi-FKBP51 were injected for 150 sec at a flow rate of 10 μl/min. Serial dilution of FRB was prepared (12 concentrations, 3-fold dilutions, 0.00011-20 μM) and supplemented with 100 nM of rapalog. A-B-A injection mode was used to ensure saturation immobilized […] with respective rapalog. 100 nM solution of the respective rapalog was injected before FRB injection for 120 sec and during dissociation for 420 sec. The FRB dilutions were then injected 120 seconds contact time with increasing concentrations. […] 50 mM HEPES pH 7.5, 150 mM NaCl, 2 mM MgCl2, 1 mM DTT, 0.05% Tween-20, 1% DMSO was used as running buffer at a flow rate of 30 μl/min. The multi-cycle kinetics data were fit to a 1:1 binding model to measure the association rate ka (1/Ms), the dissociation rate kd (1/s) and the affinity Kd (M). In case of fast association and dissociation, steady state affinity analysis following the law of mass action was used to determine the affinity Kd (M).

mTORC2 = mTORC2 (Homo sapiens (Human), UniProt P42345+P62942); test: mTORC2 inhibition, AlphaLISA of Phospho-AKT (pAKT pS473) in PC3 cells; format: cell-based
Experimental: Example 32: mTORC1 Inhibition, mTORC2 Inhibition, Cell Lysis, AlphaLISA Experiments, and Data Analysis
mTORC2 inhibition was determined via analysis of phosphorylation level of Phospho-AKT (pAKT pS473) with the corresponding AlphaLISA kit (PerkinElmer, Alpha SF Ultra™ Multiplex p-AKT1/2/3(Ser473)/Total AKT1). PC3 cells were plated on 96 well plates in assay medium (DMEM: Ham's F12, basic (CLS Cell Lines Service GmbH, Cat #820400a), supplemented with additional 10% FBS at 1.20E+06 cells/mL and incubated over-night at 37° C., 5% CO2. On the following day, cells were treated with assay medium (10% FBS) containing increasing compound concentrations (12 points at 3-fold dilutions) and incubated for 6 hours at 37° C., 5% CO2. Thereafter, medium was aspirated and cells were rinsed with PBS. In the following, cells were treated with compound dilutions in starvation medium (DMEM: Ham's F12, basic; without FBS) for further 18 h at 37° C., 5% CO2. Then, immediately prior to cell lysis, cells were treated with 12% FBS for 15 min.
After performing experiments according to mTORC1 and mTORC2 protocols, cells were harvested in lysis buffer supplied with the AlphaLISA kits, additionally enriched with Roche cOmplete™ Protease Inhibitor Cocktail (Cat #CO-RO). Thus, cells were lysed using 50 μL of the lysis buffer and incubated for 60 min at 4° C. while shaking. After centrifugation at 4000 rpm for 5 min, experiments were performed according to the AlphaLISA manufacturer's protocol.
Ten microliters of cell lysates were mixed with the acceptor mix. After incubation for 2 h at room temperature, the donor mix was added. After additional incubation at room temperature for 2 hours, AlphaLISA signal was read on PHERAstar® FSX (BMG Labtech) with AlphaPLEX module.
EC50 values were calculated by ExcelFit standard algorithm.

[2] = target: FKBP12 / FRB ternary complex (Homo sapiens (Human), UniProt P42345+P62942); test: SPR assay to characterize ternary complex formation with FKBP12 (FRB binding to rapalog-saturated FKBP12); conditions: FRB dilutions with 100 nM rapalog on immobilized FKBP12
Experimental: Example 30: SPR Assay to Characterize Ternary Complex Formation with FKBP12
as §1, with “Biotinylated avi-FKBP12” for “Biotinylated avi-FKBP51”, “of 100” for “of 200”, “RU, 0.3” for “RU, 0.6”, “biotinylated avi-FKBP12” for “biotinylated avi-FKBP51”, “for 80” for “for 150”

Chain of FKBP12 (P62942 whole entry): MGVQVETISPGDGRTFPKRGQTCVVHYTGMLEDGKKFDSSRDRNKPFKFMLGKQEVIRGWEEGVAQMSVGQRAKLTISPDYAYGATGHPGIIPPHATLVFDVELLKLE
Chain of FKBP51 (Q13451 whole entry): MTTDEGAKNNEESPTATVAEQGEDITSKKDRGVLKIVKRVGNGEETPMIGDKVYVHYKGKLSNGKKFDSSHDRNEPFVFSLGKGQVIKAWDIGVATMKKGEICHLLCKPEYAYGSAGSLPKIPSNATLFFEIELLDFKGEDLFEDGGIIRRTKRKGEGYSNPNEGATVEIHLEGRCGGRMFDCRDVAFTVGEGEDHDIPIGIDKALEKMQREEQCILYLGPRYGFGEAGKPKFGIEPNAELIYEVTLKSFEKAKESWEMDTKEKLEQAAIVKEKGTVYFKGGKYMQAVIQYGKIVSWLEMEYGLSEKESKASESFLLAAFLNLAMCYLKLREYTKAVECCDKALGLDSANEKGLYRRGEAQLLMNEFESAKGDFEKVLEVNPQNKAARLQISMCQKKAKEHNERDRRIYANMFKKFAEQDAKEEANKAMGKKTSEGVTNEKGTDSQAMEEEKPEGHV

COCCOCCS(=O)(=O)N[C@H]1C[C@@H]2CC[C@@H](C)[C@@](O)(O2)C(=O)C(=O)N2CCCC[C@H]2C(=O)O[C@H]([C@H](C)C[C@@H]2CC[C@@H](O)[C@H](OC)C2)CC(=O)[C@H](C)/C=C(\C)[C@@H](O)[C@@H](OC)C(=O)[C@H](C)C[C@H](C)/C=C/C=C/C=C/1C [Compound 9]
IC50 (mTORC1): < 0.1 nM
Kd (FKBP51): < 10 nM
Kd (FKBP12): < 0.3 nM
Kd [1]: < 300 nM
mTORC2 % inhibition at 1 uM (mTORC2): C (C≥40% and less than 60% inhibition at 1 uM)
Kd [2]: < 300 nM

COC1C(=O)C(C)CC/C=C/C=C/C=C(\C)[C@H](NS(=O)(=O)CCO)C[C@H]2CC[C@H](C)[C@](O)(O2)C(=O)C(=O)N(C)C(C)C(=O)OC([C@H](C)C[C@@H]2CC[C@@H](OC3CC3)[C@H](OC)C2)CC(=O)C(C)/C=C(\C)C1O (stereo partly drawn) [Compound 10]
IC50 (mTORC1): 0.1 to 0.8 nM
Kd (FKBP51): 10 to 100 nM
Kd (FKBP12): 0.3 to 1 nM
Kd [1]: 300 to 800 nM
mTORC2 % inhibition at 1 uM (mTORC2): A (A ≤20% inhibition at 1 micro Molar (uM))
Kd [2]: 300 to 800 nM

COC1C(=O)C(C)CC/C=C/C=C/C=C(\C)[C@@H](NS(=O)(=O)CCO)C[C@H]2CC[C@H](C)[C@](O)(O2)C(=O)C(=O)N(C)C(C)C(=O)OC([C@H](C)C[C@@H]2CC[C@@H](OC3CC3)[C@H](OC)C2)CC(=O)C(C)/C=C(\C)C1O (stereo partly drawn) [Compound 11]
IC50 (mTORC1): 0.1 to 0.8 nM
Kd (FKBP51): 10 to 100 nM
Kd (FKBP12): 0.3 to 1 nM
Kd [1]: 300 to 800 nM
mTORC2 % inhibition at 1 uM (mTORC2): A (A ≤20% inhibition at 1 micro Molar (uM))
Kd [2]: 300 to 800 nM

CCOC(=O)CS(=O)(=O)NC1C[C@H]2CC[C@H](C)[C@](O)(O2)C(=O)C(=O)N(C)C(C)C(=O)OC([C@H](C)C[C@@H]2CC[C@@H](OC3CC3)[C@H](OC)C2)CC(=O)C(C)/C=C(\C)C(O)C(OC)C(=O)C(C)CC/C=C/C=C/C=C/1C (stereo partly drawn) [Compound 12]
IC50 (mTORC1): > 0.8 nM
Kd (FKBP51): 10 to 100 nM
Kd (FKBP12): 0.3 to 1 nM
Kd [1]: 300 to 800 nM
mTORC2 % inhibition at 1 uM (mTORC2): A (A ≤20% inhibition at 1 micro Molar (uM))
Kd [2]: 300 to 800 nM

COC1C(=O)C(C)CC/C=C/C=C/C=C(\C)C(NS(=O)(=O)CCCS(=O)(=O)O)C[C@H]2CC[C@H](C)[C@](O)(O2)C(=O)C(=O)N(C)C(C)C(=O)OC([C@H](C)C[C@@H]2CC[C@@H](OC3CC3)[C@H](OC)C2)CC(=O)C(C)/C=C(\C)C1O (stereo partly drawn) [Compound 18]
IC50 (mTORC1): 0.1 to 0.8 nM
Kd (FKBP51): 10 to 100 nM
Kd (FKBP12): 0.3 to 1 nM
Kd [1]: 300 to 800 nM
mTORC2 % inhibition at 1 uM (mTORC2): A (A ≤20% inhibition at 1 micro Molar (uM))
Kd [2]: 300 to 800 nM

CO[C@@H]1C[C@H](C[C@@H](C)[C@@H]2CC(=O)[C@H](C)/C=C(\C)[C@@H](O)[C@@H](OC)C(=O)[C@H](C)C[C@H](C)/C=C/C=C/C=C(\C)[C@H](NS(=O)(=O)CC3CCCCC3)C[C@@H]3CC[C@@H](C)[C@@](O)(O3)C(=O)C(=O)N3CCCC[C@H]3C(=O)O2)CC[C@H]1O [Compound 19]
IC50 (mTORC1): > 0.8 nM
Kd (FKBP51): > 100 nM
Kd (FKBP12): 0.3 to 1 nM
Kd [1]: > 800 nM
mTORC2 % inhibition at 1 uM (mTORC2): B (B>20% and less than 40% inhibition at 1 uM)
Kd [2]: > 800 nM

CO[C@@H]1C[C@H](C[C@@H](C)[C@@H]2CC(=O)[C@H](C)/C=C(\C)[C@@H](O)[C@@H](OC)C(=O)[C@H](C)C[C@H](C)/C=C/C=C/C=C(\C)[C@@H](NS(=O)(=O)CC3CCCCC3)C[C@@H]3CC[C@@H](C)[C@@](O)(O3)C(=O)C(=O)N3CCCC[C@H]3C(=O)O2)CC[C@H]1O [Compound 20]
IC50 (mTORC1): 0.1 to 0.8 nM
Kd (FKBP51): > 100 nM
Kd (FKBP12): < 0.3 nM
Kd [1]: > 800 nM
mTORC2 % inhibition at 1 uM (mTORC2): B (B>20% and less than 40% inhibition at 1 uM)
Kd [2]: 300 to 800 nM

CO[C@@H]1C[C@H](C[C@@H](C)[C@@H]2CC(=O)[C@H](C)/C=C(\C)[C@@H](O)[C@@H](OC)C(=O)[C@H](C)C[C@H](C)/C=C/C=C/C=C(\C)[C@H](NS(=O)(=O)CC3CCCC3)C[C@@H]3CC[C@@H](C)[C@@](O)(O3)C(=O)C(=O)N3CCCC[C@H]3C(=O)O2)CC[C@H]1O [Compound 22]
IC50 (mTORC1): 0.1 to 0.8 nM
Kd (FKBP51): > 100 nM
Kd (FKBP12): < 0.3 nM
Kd [1]: > 800 nM
mTORC2 % inhibition at 1 uM (mTORC2): A (A ≤20% inhibition at 1 micro Molar (uM))
Kd [2]: > 800 nM
